ChEMBL document CHEMBL2440050 (ACS Med Chem Lett, 2013)

Tests used:
[1] = Growth inhibition of human KPL4 cells after 72 hrs by MTS assay; format: functional, cell-based; details: KPL4, 72 h
AU565 [2] = assay: Ratio of vinblastine IC50 to compound IC50 for human AU565 cells by MTS assay; format: functional
HCC1143 [3] = assay: Ratio of vinblastine IC50 to compound IC50 for human HCC1143 cells by MTS assay; format: functional
MCF7 = assay: Growth inhibition of human MCF7 cells after 72 hrs by MTS assay; format: functional, cell-based; details: MCF7, 72 h
L1210 [4] = assay: Growth inhibition of mouse L1210 cells after 72 hrs by phosphatase assay; format: functional, cell-based; details: L1210, 72 h
[5] = Growth inhibition of human SW403 cells after 72 hrs by MTS assay; format: functional, cell-based; details: SW-403, 72 h
HCT-116/VM46 [6] = assay: Ratio of vinblastine IC50 to compound IC50 for vinblastine-resistant human HCT116/VM46 cells overexpressing P-gp by MTS assay; format: functional
PA-1 [7] = assay: Growth inhibition of human PA1 cells after 72 hrs by MTS assay; format: functional, cell-based; details: PA-1, 72 h
[8] = Ratio of vinblastine IC50 to compound IC50 for human LNCaP-FGC cells by MTS assay; format: functional
HCT-116/VM46 [9] = assay: Ratio of vinblastine IC50 to compound IC50 for vinblastine-resistant human HCT116/VM46 cells overexpressing P-gp by phosphatase assay; format: functional
HCT-116 [10] = assay: Ratio of vinblastine IC50 to compound IC50 for vinblastine-sensitive human HCT116 cells by MTS assay; format: functional
NCI-H520 [11] = assay: Ratio of vinblastine IC50 to compound IC50 for human NCI-H520 cells by MTS assay; format: functional
NCI-H520 [12] = assay: Growth inhibition of human NCI-H520 cells after 72 hrs by MTS assay; format: functional, cell-based; details: NCI-H520, 72 h
ZR-75-1 [13] = assay: Growth inhibition of human ZR-75-1 cells after 72 hrs by MTS assay; format: functional, cell-based; details: ZR-75-1, 72 h
[14] = Ratio of vinblastine IC50 to compound IC50 for human KPL4 cells by MTS assay; format: functional
HCT-116/VM46 [15] = assay: Growth inhibition of vinblastine-resistant human HCT116/VM46 cells overexpressing P-gp after 72 hrs by MTS assay; format: functional, cell-based; details: HCT-116/VM46, 72 h
HCT-116 [16] = assay: Growth inhibition of vinblastine-sensitive human HCT116 cells after 72 hrs by MTS assay; format: functional, cell-based; details: HCT-116, 72 h
HCC70 [17] = assay: Ratio of vinblastine IC50 to compound IC50 for human HCC70 cells by MTS assay; format: functional
HCT-116/VM46 [18] = assay: Growth inhibition of vinblastine-resistant human HCT116/VM46 cells overexpressing P-gp after 72 hrs by phosphatase assay; format: functional, cell-based; details: HCT-116/VM46, 72 h
[19] = Growth inhibition of human LNCaP-FGC cells after 72 hrs by MTS assay; format: functional, cell-based; details: LNCaP-Clone-FGC
MDA-MB-468 [20] = assay: Growth inhibition of human MDA-MB-468 cells after 72 hrs by MTS assay; format: functional, cell-based; details: MDA-MB-468, 72 h
L1210 [21] = assay: Ratio of vinblastine IC50 to compound IC50 for mouse L1210 cells by phosphatase assay; format: functional
PA-1 [22] = assay: Ratio of vinblastine IC50 to compound IC50 for human PA1 cells by MTS assay; format: functional
HCC1143 [23] = assay: Growth inhibition of human HCC1143 cells after 72 hrs by MTS assay; format: functional, cell-based; details: HCC1143, 72 h
[24] = Growth inhibition of human LS 174T cells after 72 hrs by MTS assay; format: functional, cell-based; details: LS174T
[25] = Ratio of vinblastine IC50 to compound IC50 for human SW403 cells by MTS assay; format: functional
HCT-116 [26] = assay: Growth inhibition of vinblastine-sensitive human HCT116 cells after 72 hrs by phosphatase assay; format: functional, cell-based; details: HCT-116, 72 h
MDA-MB-468 [27] = assay: Ratio of vinblastine IC50 to compound IC50 for human MDA-MB-468 cells by MTS assay; format: functional
T47D [28] = assay: Ratio of vinblastine IC50 to compound IC50 for human T47D cells by MTS assay; format: functional
HCT-116 [29] = assay: Ratio of IC50 for vinblastine-resistant human HCT116/VM46 cells overexpressing P-gp to IC50 for vinblastine-sensitive human HCT116 cells by phosphatase assay; format: functional
AU565 [30] = assay: Growth inhibition of human AU565 cells after 72 hrs by MTS assay; format: functional, cell-based; details: AU565, 72 h
ZR-75-1 [31] = assay: Ratio of vinblastine IC50 to compound IC50 for human ZR-75-1 cells by MTS assay; format: functional
HCT-116 [32] = assay: Ratio of vinblastine IC50 to compound IC50 for vinblastine-sensitive human HCT116 cells by phosphatase assay; format: functional
LS174T = assay: Ratio of vinblastine IC50 to compound IC50 for human LS 174T cells by MTS assay; format: functional
T47D [33] = assay: Growth inhibition of human T47D cells after 72 hrs by MTS assay; format: functional, cell-based
HCC70 [34] = assay: Growth inhibition of human HCC70 cells after 72 hrs by MTS assay; format: functional, cell-based; details: HCC70, 72 h
HCT-116 [35] = assay: Ratio of IC50 for vinblastine-resistant human HCT116/VM46 cells overexpressing P-gp to IC50 for vinblastine-sensitive human HCT116 cells by MTS assay; format: functional
Tubulin (Sus scrofa) = Tubulin (Sus scrofa) (UniProt P02554+P02550); assay: Displacement of [3H]-VBL from porcine tubulin after 60 mins relative to control; format: protein assay
Sequence of Tubulin (Sus scrofa) (P02550 whole entry, looked up): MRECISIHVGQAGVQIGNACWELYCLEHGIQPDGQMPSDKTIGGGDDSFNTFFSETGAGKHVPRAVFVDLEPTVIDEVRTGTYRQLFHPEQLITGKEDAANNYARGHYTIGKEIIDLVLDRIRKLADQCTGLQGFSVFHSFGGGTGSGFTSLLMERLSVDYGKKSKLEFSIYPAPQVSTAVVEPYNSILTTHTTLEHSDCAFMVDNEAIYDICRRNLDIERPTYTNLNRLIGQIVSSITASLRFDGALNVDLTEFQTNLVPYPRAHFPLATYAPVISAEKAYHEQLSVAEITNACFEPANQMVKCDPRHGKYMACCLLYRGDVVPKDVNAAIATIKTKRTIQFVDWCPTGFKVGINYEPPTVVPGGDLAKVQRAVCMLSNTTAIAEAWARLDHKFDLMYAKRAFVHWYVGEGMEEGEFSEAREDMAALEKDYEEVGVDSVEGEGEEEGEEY
Sequence of Tubulin (Sus scrofa) (P02554 whole entry, looked up): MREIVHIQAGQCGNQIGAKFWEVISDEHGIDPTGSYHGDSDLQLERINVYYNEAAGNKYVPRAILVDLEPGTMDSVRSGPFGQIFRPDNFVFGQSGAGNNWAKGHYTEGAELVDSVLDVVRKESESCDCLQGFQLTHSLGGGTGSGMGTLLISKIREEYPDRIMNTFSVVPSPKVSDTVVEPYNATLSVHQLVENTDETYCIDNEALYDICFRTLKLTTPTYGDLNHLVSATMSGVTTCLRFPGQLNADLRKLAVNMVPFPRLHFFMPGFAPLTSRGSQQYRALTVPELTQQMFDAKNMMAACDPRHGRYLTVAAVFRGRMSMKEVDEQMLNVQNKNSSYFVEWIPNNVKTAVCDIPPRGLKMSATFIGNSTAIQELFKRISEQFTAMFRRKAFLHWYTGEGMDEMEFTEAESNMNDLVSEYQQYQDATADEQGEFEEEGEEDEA

Compound	IC50 (MCF7) [nM]	IC50 (L1210 [4]) [nM]	IC50 (NCI-H520 [12]) [nM]	IC50 (HCT-116/VM46 [15]) [nM]	IC50 (HCT-116 [16]) [nM]	IC50 (HCT-116/VM46 [18]) [nM]	IC50 (HCT-116 [26]) [nM]	IC50 [1] [nM]	Ratio IC50 (AU565 [2])	Ratio IC50 (HCC1143 [3])	IC50 [5] [nM]	Ratio IC50 (HCT-116/VM46 [6])	IC50 (PA-1 [7]) [nM]	Ratio IC50 [8]	Ratio IC50 (HCT-116/VM46 [9])	Ratio IC50 (HCT-116 [10])	Ratio IC50 (NCI-H520 [11])	IC50 (ZR-75-1 [13]) [nM]	Ratio IC50 [14]	Ratio IC50 (HCC70 [17])	other results
CC[C@]1(NC(=O)N2CCc3ccccc3C2)C[C@H]2CN(CCc3c([nH]c4ccccc34)[C@@](C(=O)OC)(c3cc4c(cc3OC)N(C)[C@H]3[C@@](O)(C(=O)OC)[C@H](OC(C)=O)[C@]5(CC)C=CCN6CC[C@]43[C@@H]65)C2)C1	2.1	0.62	0.14	6.6	0.26	8.7	0.56	0.06	10	10	1.2	10	0.19	10	80	10	10	0.52	10	10	IC50 [19]: 0.02 nM; IC50 (MDA-MB-468 [20]): 0.12 nM; Ratio IC50 (L1210 [21]): 10; Ratio IC50 (PA-1 [22]): 10; IC50 (HCC1143 [23]): 0.16 nM; IC50 [24]: 0.3 nM; Ratio IC50 [25]: 10; Ratio IC50 (MDA-MB-468 [27]): 10; Ratio IC50 (T47D [28]): 10; Ratio IC50 (HCT-116 [29]): 13; IC50 (AU565 [30]): 0.13 nM; Ratio IC50 (ZR-75-1 [31]): 10; Ratio IC50 (HCT-116 [32]): 10; Ratio IC50 (LS174T): 10; IC50 (T47D [33]): 0.55 nM; IC50 (HCC70 [34]): 0.13 nM
CC[C@]1(NC(=O)N2Cc3ccccc3C2)C[C@H]2CN(CCc3c([nH]c4ccccc34)[C@@](C(=O)OC)(c3cc4c(cc3OC)N(C)[C@H]3[C@@](O)(C(=O)OC)[C@H](OC(C)=O)[C@]5(CC)C=CCN6CC[C@]43[C@@H]65)C2)C1	> 12.5	0.51	0.1	3.5	0.16	7.5	0.6	0.04	10	10	0.45	10	0.11	10	80	10	10	0.45	10	10	Ratio IC50 (HCT-116 [35]): 20; IC50 [19]: 0.24 nM; IC50 (MDA-MB-468 [20]): 0.39 nM; Ratio IC50 (L1210 [21]): 10; Activity (Tubulin (Sus scrofa)): 41.2%; Ratio IC50 (PA-1 [22]): 10; IC50 (HCC1143 [23]): 0.09 nM; IC50 [24]: 0.45 nM; Ratio IC50 [25]: 10; Ratio IC50 (MDA-MB-468 [27]): 10; Ratio IC50 (T47D [28]): 10; Ratio IC50 (HCT-116 [29]): 13; IC50 (AU565 [30]): 0.11 nM; Ratio IC50 (ZR-75-1 [31]): 10; Ratio IC50 (HCT-116 [32]): 10; Ratio IC50 (LS174T): 10; IC50 (T47D [33]): 0.41 nM; IC50 (HCC70 [34]): 0.04 nM
CC[C@]1(NC(=O)N2CCN(C)CC2)C[C@H]2CN(CCc3c([nH]c4ccccc34)[C@@](C(=O)OC)(c3cc4c(cc3OC)N(C)[C@H]3[C@@](O)(C(=O)OC)[C@H](OC(C)=O)[C@]5(CC)C=CCN6CC[C@]43[C@@H]65)C2)C1	–	7.7	–	–	–	710	3.4	–	–	–	–	–	–	–	–	–	–	–	–	–	–

Now from value to compound, other results behind:

IC50 (MCF7) [nM]	IC50 (L1210 [4]) [nM]	IC50 (NCI-H520 [12]) [nM]	IC50 (HCT-116/VM46 [15]) [nM]	IC50 (HCT-116 [16]) [nM]	IC50 (HCT-116/VM46 [18]) [nM]	IC50 (HCT-116 [26]) [nM]	Compound	IC50 [1] [nM]	Ratio IC50 (AU565 [2])	Ratio IC50 (HCC1143 [3])	IC50 [5] [nM]	Ratio IC50 (HCT-116/VM46 [6])	IC50 (PA-1 [7]) [nM]	Ratio IC50 [8]	Ratio IC50 (HCT-116/VM46 [9])	Ratio IC50 (HCT-116 [10])	Ratio IC50 (NCI-H520 [11])	IC50 (ZR-75-1 [13]) [nM]	Ratio IC50 [14]	Ratio IC50 (HCC70 [17])	other results
–	2.1	–	–	–	50	0.88	CC[C@]1(NC(=O)N2CCSCC2)C[C@H]2CN(CCc3c([nH]c4ccccc34)[C@@](C(=O)OC)(c3cc4c(cc3OC)N(C)[C@H]3[C@@](O)(C(=O)OC)[C@H](OC(C)=O)[C@]5(CC)C=CCN6CC[C@]43[C@@H]65)C2)C1	–	–	–	–	–	–	–	–	–	–	–	–	–	–
–	5.5	–	–	–	–	–	CC[C@]1(NC(=O)N2CCCCC2)C[C@H]2CN(CCc3c([nH]c4ccccc34)[C@@](C(=O)OC)(c3cc4c(cc3OC)N(C)[C@H]3[C@@](O)(C(=O)OC)[C@H](OC(C)=O)[C@]5(CC)C=CCN6CC[C@]43[C@@H]65)C2)C1	–	–	–	–	–	–	–	–	–	–	–	–	–	–
–	0.7	–	–	–	50	0.72	CC[C@]1(NC(=O)N2CCCC2)C[C@H]2CN(CCc3c([nH]c4ccccc34)[C@@](C(=O)OC)(c3cc4c(cc3OC)N(C)[C@H]3[C@@](O)(C(=O)OC)[C@H](OC(C)=O)[C@]5(CC)C=CCN6CC[C@]43[C@@H]65)C2)C1	–	–	–	–	–	–	–	–	–	–	–	–	–	–
